US10106519B2, “3-phenyl-7-hydroxy-isocoumarins as macrophage migration inhibitory factor (MIF) inhibitors” (The Provost, Fellows, Foundation Scholars, & the Other …, priority 2014, dated 2018)
Entries after “also recorded” stand apart in the source; their conditions may differ.

Key:
[1] = tested on: Lewis Lung carcinoma cells; test: Subcutaneous LLC1 tumour model with in vivo tautomerase inhibitor treatment; set-up: species or system C57BL/6 mice
Method: Log phase cultures of LLC-1 cells were harvested by trypsinisation and washed three times with sterile phosphate buffered saline (PBS) and resuspended at a cell density of 5×10^5/ml in PBS. Animals were shaved with an electric shaver 24 hours before subcutaneous injection. 5×10^5 Lewis Lung cells were injected subcutaneously into the left flank of C57BL/6 mice of 6-8 weeks. Animals were monitored for the duration of the experiment and tumour measurements were recorded twice weekly with a digital callipers. Tumour volume (mm^3) was calculated as 0.5×L×W^2, where length is representative of the larger tumour diameter and the width represents the smaller tumour diameter. Animals are sacrificed when tumours reach a diameter of 15 mm or if tumours become ulcerated. Tumours are then removed along with the lungs, spleen and liver.
30 minutes prior to LLC-1 inoculation, inhibitors (TI 19/ISO-1) were administered at a concentration of 35 mg/kg in a volume of 100 μl 5% DMSO in sterile PBS. Control groups were given injections of vehicle 5% DMSO in sterile PBS or sterile PBS alone. Animals were treated twice weekly for four weeks.
In order to assess the antitumour activity of the novel tautomerase inhibitors in vivo, a subcutaneous LLC-1 cell model was set up. The subcutaneous model was chosen so that tumours could be easily visualised and measured during the course of the experiment and to allow assessment of the growth of the tumour in real time. Lewis Lung carcinoma cells (5×10^5) were injected sub-cutaneously into the left flank of C57BL/6 mice. Caliper measurements were taken twice weekly and tumour volume (mm^3) was calculated as 0.5×L×W^2. […] The cut off point for this model was when the tumour measured 15 mm in diameter. This model gave us an indication of normal tumour growth in this subcutaneous model. It can be seen from this model that from day 22 to day 28 the size of the tumour grows considerably.
Once it was determined that the enzymatic activity played a role in the growth of tumours, the subcutaneous LLC model was then used to assess the efficiency of the small weight molecular inhibitors. C57/B16 mice were injected intraperitoneally with 35 mg/kg of each of the inhibitors 30 minutes prior to subcutaneous tumour inoculation and again twice weekly for 4 weeks. Animals were monitored daily and tumour measurements taken until the tumour measured 15 mm in diameter.

[2] = tested on: Lewis Lung carcinoma cells (LLC); test: LLC-GLuc proliferation assay with rMIF; assay type: cell-based, mouse; settings: 100 μM inhibitor, 100 ng/ml rMIF, 48 hours (FIG. 5)
Method: LLC-GLuc cells were plated in a 6 well plate at a density of 5×10^4 cells/ml in DMEM supplemented with P/S, 10% FCS and L-Glu. After overnight adherence, 100 ng/ml MIF was added along with the inhibitors or DMSO to a total of 1 ml serum free medium. Cells were harvested after 48 hours by trypsinisation and counted in a haemocytometer.
The ability of candidate compounds to reduce cellular proliferation was also examined. For this assay, LLC cells were plated at a cell density of 5×10^4 cells/ml. The cells were then pre-treated with TI 19 or ISO-1 at a concentration of 100 μM. The cells were then treated with 100 ng/ml of recombinant MIF. The cells were incubated at 37° C. in a humidified 5% CO2 incubator and after 48 hours the cells were harvested and counted.

SMILES: Cc1ccccc1-c1cc2ccccc2c(=O)o1 [TI 19]
- tumour volume ([1]; 35 mg/kg intraperitoneally 30 min prior to inoculation and twice weekly (FIG. 8)): 116.1±30.41 mm^3
- reduction in tumour size, in words ([1]; 35 mg/kg intraperitoneally, versus untreated or vehicle (DMSO) group (FIG. 8)): significant reduction in tumour size; also recorded: significant reduction in tumour volume
- effectiveness in reducing tumour size relative to ISO-1 ([1]; at 28 days): approximately twice as effective
- reduction of MIF induced proliferation, in words [2]: inhibited significantly; also recorded: reduced proliferation to levels comparable with untreated cells; also recorded: reduced cell proliferation
